Results on 18 compounds are retold here after US20230257372A1 (CHONG KUN DANG PHARMACEUTICAL CORP., priority 2020, published 2023).

One assay addresses T1, human recombinant HDAC1 (Homo sapiens, UniProt Q13547).
T1 construct: purchased Enzo Life Science, Inc. BML-SE456
Nature of the assay: HDAC1 enzyme activity inhibition (HDAC Fluorimetric Drug Discovery Kit). Type of assay: biochemical. Particulars: read-out: HDAC1. The method in brief:
(§1)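 Enzyme at 0.3 µg per well was reacted with 10 μM fluorogenic substrate in presence of 5-fold diluted compound, 30° C for 60 min.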

A further assay addresses T2, human recombinant HDAC6 (Homo sapiens, UniProt Q9UBN7).
T2 construct: purchased Calbiochem Inc. 382180
T2 sequence (Q9UBN7 1-1215): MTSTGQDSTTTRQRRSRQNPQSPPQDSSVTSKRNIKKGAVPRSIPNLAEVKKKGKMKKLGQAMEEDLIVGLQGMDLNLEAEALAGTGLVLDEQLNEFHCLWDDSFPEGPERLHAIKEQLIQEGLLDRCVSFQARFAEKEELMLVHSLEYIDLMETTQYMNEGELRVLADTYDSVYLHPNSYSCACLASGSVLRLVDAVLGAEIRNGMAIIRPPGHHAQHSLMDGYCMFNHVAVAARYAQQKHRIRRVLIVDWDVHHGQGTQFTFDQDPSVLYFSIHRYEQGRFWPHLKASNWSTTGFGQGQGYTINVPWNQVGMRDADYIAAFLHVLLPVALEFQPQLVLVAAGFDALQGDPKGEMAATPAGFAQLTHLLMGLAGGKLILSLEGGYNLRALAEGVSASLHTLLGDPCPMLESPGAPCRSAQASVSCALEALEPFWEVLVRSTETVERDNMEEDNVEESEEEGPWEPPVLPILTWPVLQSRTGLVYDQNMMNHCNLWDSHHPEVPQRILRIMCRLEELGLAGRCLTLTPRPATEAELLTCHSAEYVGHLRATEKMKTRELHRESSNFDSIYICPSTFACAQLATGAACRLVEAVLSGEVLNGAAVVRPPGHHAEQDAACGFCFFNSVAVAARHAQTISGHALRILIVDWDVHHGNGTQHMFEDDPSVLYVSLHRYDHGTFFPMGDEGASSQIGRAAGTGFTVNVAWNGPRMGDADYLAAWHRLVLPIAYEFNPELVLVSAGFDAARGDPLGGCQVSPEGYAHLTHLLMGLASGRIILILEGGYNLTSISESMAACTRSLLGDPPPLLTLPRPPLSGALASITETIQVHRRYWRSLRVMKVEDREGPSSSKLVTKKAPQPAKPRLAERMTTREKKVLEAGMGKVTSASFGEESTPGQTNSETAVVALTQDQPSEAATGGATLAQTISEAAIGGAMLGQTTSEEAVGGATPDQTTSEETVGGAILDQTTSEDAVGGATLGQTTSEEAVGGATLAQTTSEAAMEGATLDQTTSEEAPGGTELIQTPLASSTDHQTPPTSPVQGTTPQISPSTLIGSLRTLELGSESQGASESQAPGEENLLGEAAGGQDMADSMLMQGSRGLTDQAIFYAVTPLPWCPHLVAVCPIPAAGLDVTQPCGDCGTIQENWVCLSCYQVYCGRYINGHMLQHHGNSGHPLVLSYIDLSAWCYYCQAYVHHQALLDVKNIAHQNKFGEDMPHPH
The experiment in a line: HDAC6 enzyme activity inhibition (HDAC Fluorimetric Drug Discovery Kit). Type of assay: biochemical. The method in brief:
as §1

[1] abbreviates: human recombinant HDAC1, Fluor de Lys substrate, 30° C. 60 minutes.
Setting [2] is: human recombinant HDAC6, same protocol as HDAC1.
Setting [3] is: human recombinant HDAC1, IC50 calculated with GraphPad Prism.
Setting [4] is: human recombinant HDAC6, IC50 calculated with GraphPad Prism.

SMILES strings stand for the structures. Like-named read-outs stand apart in the source and are kept apart here.

T1 sequence (Q13547 whole entry): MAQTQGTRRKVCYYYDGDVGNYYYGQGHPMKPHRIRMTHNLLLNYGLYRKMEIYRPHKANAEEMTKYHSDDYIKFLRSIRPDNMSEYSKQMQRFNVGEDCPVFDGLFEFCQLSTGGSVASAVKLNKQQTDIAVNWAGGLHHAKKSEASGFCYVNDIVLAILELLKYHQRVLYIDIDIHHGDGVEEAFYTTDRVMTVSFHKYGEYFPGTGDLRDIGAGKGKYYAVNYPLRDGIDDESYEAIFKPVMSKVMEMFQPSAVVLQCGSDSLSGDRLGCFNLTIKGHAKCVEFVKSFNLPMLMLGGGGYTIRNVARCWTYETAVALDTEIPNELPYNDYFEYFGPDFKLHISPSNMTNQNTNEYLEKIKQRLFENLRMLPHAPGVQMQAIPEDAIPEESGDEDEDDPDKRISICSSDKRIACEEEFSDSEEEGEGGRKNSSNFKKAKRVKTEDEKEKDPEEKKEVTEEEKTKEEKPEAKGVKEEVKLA

As for `Fc1cc(-c2nnc(C(F)F)o2)cnc1Cn1cc(-c2ccccc2)nn1` [Compound 17347, 2-(difluoromethyl)-5-(5-fluoro-6-((4-phenyl-1H-1,2,3-triazol-1-yl)methyl)pyridin-3-yl)-1,3,4-oxadiazole], the figures for the IC50 at human recombinant HDAC1 (setting [1]) and at human recombinant HDAC6 (setting [2]) were > 50 µM and 0.0796 µM, respectively. The “HDAC6 selectivity (fold)” value at human recombinant HDAC6 (HDAC6 over HDAC1) came out at 628 fold.

For the compound `FC(F)c1nnc(-c2ccc(Cn3cc(C4CCCCC4)nn3)nc2)o1` [Compound 3880, 2-(6-((4-cyclohexyl-1H-1,2,3-triazol-1-yl)methyl)pyridin-3-yl)-5-(difluoromethyl)-1,3,4-oxadiazole], the results for the IC50 at human recombinant HDAC1 (setting [3]) and on human recombinant HDAC6 (setting [4]) were > 50 µM and 0.0797 µM, respectively. Moreover, the “HDAC6 selectivity (fold)” value on human recombinant HDAC6 (HDAC1 IC50 / HDAC6 IC50) is given as 627 fold.

On to `Cc1ccc(-c2cn(Cc3ccc(-c4nnc(C(F)F)o4)cc3F)nn2)cc1` [Compound 3733, 2-(difluoromethyl)-5-(3-fluoro-4-((4-(p-tolyl)-1H-1,2,3-triazol-1-yl)methyl)phenyl)-1,3,4-oxadiazole], for which the IC50 on human recombinant HDAC1 (setting [3]) is > 50 µM; at human recombinant HDAC6 (setting [4]), 0.233 µM. Moreover, at human recombinant HDAC6 (HDAC1 IC50 / HDAC6 IC50), the “HDAC6 selectivity (fold)” value is 215 fold.

In the case of `CN1C[C@@H]2C[C@H]1CN2c1cc(-c2cn(Cc3ccc(-c4nnc(C(F)F)o4)cc3)nn2)ccc1F` [Compound 4429, 2-(difluoromethyl)-5-(4-((4-(4-fluoro-3-((1S,4S)-5-methyl-2,5-diazabicyclo[2.2.1]heptan-2-yl)phenyl)-1H-1,2,3-triazol-1-yl)methyl)phenyl)-1,3,4-oxadiazole], the figures for the IC50 on human recombinant HDAC1 (setting [3]) and at human recombinant HDAC6 (setting [4]) were > 50 µM and 0.0669 µM, respectively. For the same compound, on human recombinant HDAC6 (HDAC1 IC50 / HDAC6 IC50), the “HDAC6 selectivity (fold)” value stood at 747 fold.

In the case of `FC(F)c1nnc(-c2ccc(Cn3cc(-c4ccc5c(c4)CCN(C4CCC4)C5)nn3)nc2)o1` [Compound 4054, 2-(6-((4-(2-cyclobutyl-1,2,3,4-tetrahydroisoquinolin-6-yl)-1H-1,2,3-triazol-1-yl)methyl)pyridin-3-yl)-5-(difluoromethyl)-1,3,4-oxadiazole], the IC50 at human recombinant HDAC1 (setting [3]) was > 50 µM; on human recombinant HDAC6 (setting [4]), 0.0457 µM. Moreover, the “HDAC6 selectivity (fold)” value at human recombinant HDAC6 (HDAC1 IC50 / HDAC6 IC50) was found to be 1094 fold.

On to `FC(F)c1nnc(-c2ccc(Cn3cc(-c4cccc(N5CCN(C6COC6)CC5)c4)nn3)nc2)o1` [Compound 3989, 2-(difluoromethyl)-5-(6-((4-(3-(4-(oxetan-3-yl)piperazin-1-yl)phenyl)-1H-1,2,3-triazol-1-yl)methyl)pyridin-3-yl)-1,3,4-oxadiazole], for which the results for the IC50 on human recombinant HDAC1 (setting [3]) and at human recombinant HDAC6 (setting [4]) were > 50 µM and 0.0313 µM, respectively. In addition, on human recombinant HDAC6 (HDAC1 IC50 / HDAC6 IC50), the “HDAC6 selectivity (fold)” value was determined as 1597 fold.

Consider `O=c1[nH]cccc1-c1cn(Cc2ccc(-c3nnc(C(F)F)o3)cn2)nn1` [Compound 3844, 3-(1-((5-(5-(difluoromethyl)-1,3,4-oxadiazol-2-yl)pyridin-2-yl)methyl)-1H-1,2,3-triazol-4-yl)pyridin-2(1H)-one], for which the IC50 was > 50 µM on human recombinant HDAC1 (setting [3]) and 0.0207 µM at human recombinant HDAC6 (setting [4]). Also, the “HDAC6 selectivity (fold)” value on human recombinant HDAC6 (HDAC1 IC50 / HDAC6 IC50) was determined as 2415 fold.

As to `Fc1cc(-c2nnc(C(F)F)o2)ccc1Cn1cc(-c2ccc(CNC3CCC3)cc2)nn1` [Compound 4468, N-(4-(1-(4-(5-(difluoromethyl)-1,3,4-oxadiazol-2-yl)-2-fluorobenzyl)-1H-1,2,3-triazol-4-yl)benzyl)cyclobutanamine], the IC50 is > 50 µM on human recombinant HDAC1 (setting [3]) and 0.0135 µM on human recombinant HDAC6 (setting [4]). Moreover, the “HDAC6 selectivity (fold)” value on human recombinant HDAC6 (HDAC1 IC50 / HDAC6 IC50) came to 370 fold.

With `Fc1cc(-c2nnc(C(F)F)o2)ccc1Cn1cc(-c2ccc3c(c2)CCN(C2COC2)C3)nn1` [Compound 4362, 2-(difluoromethyl)-5-(3-fluoro-4-((4-(2-(oxetan-3-yl)-1,2,3,4-tetrahydroisoquinolin-6-yl)-1H-1,2,3-triazol-1-yl)methyl)phenyl)-1,3,4-oxadiazole], the IC50 at human recombinant HDAC1 (setting [3]) was > 50 µM; on human recombinant HDAC6 (setting [4]), 0.0656 µM. Also, the “HDAC6 selectivity (fold)” value at human recombinant HDAC6 (HDAC1 IC50 / HDAC6 IC50) turned out to be 762 fold.

For the compound `CC(C)N1CCc2ccc(-c3cn(Cc4ccc(-c5nnc(C(F)F)o5)cc4F)nn3)cc2C1` [Compound 4365, 2-(difluoromethyl)-5-(3-fluoro-4-((4-(2-isopropyl-1,2,3,4-tetrahydroisoquinolin-7-yl)-1H-1,2,3-triazol-1-yl)methyl)phenyl)-1,3,4-oxadiazole], the values for the IC50 on human recombinant HDAC1 (setting [3]) and at human recombinant HDAC6 (setting [4]) were > 50 µM and 0.0459 µM, respectively. In addition, the “HDAC6 selectivity (fold)” value at human recombinant HDAC6 (HDAC1 IC50 / HDAC6 IC50) is listed as 1089 fold.

On to `Fc1cc(-c2nnc(C(F)F)o2)ccc1Cn1cc(-c2cccc(N3CCN(C4COC4)CC3)c2F)nn1` [Compound 4580], for which the IC50 at human recombinant HDAC1 (setting [1]) was > 50 µM; on human recombinant HDAC6 (setting [2]) it was 0.0262 µM. For the same compound, the “HDAC6 selectivity (fold)” value at human recombinant HDAC6 (HDAC6 over HDAC1) is recorded as 1908 fold.

On to `FC(F)c1nnc(-c2ccc(Cn3cc(-c4cccc5c4CN(C4CCC4)C5)nn3)cc2)o1` [Compound 4532, 2-(4-((4-(2-cyclobutylisoindolin-4-yl)-1H-1,2,3-triazol-1-yl)methyl)phenyl)-5-(difluoromethyl)-1,3,4-oxadiazole], for which the IC50 at human recombinant HDAC1 (setting [1]) is > 50 µM; on human recombinant HDAC6 (setting [2]), 0.153 µM. Further, the “HDAC6 selectivity (fold)” value on human recombinant HDAC6 (HDAC6 over HDAC1) is 327 fold.

Turning to `CN1CCN(Cc2cccc(-c3cn(Cc4ccc(-c5nnc(C(F)F)o5)cc4F)nn3)c2)CC1` [Compound 4406, 2-(difluoromethyl)-5-(3-fluoro-4-((4-(3-((4-methylpiperazin-1-yl)methyl)phenyl)-1H-1,2,3-triazol-1-yl)methyl)phenyl)-1,3,4-oxadiazole], the IC50 at human recombinant HDAC1 (setting [3]) is > 50 µM; on human recombinant HDAC6 (setting [4]), 0.056 µM. For the same compound, the “HDAC6 selectivity (fold)” value on human recombinant HDAC6 (HDAC1 IC50 / HDAC6 IC50) was 892 fold.

`FC(F)c1nnc(-c2ccc(Cn3cc(-c4ccc5c(c4)CN(C4CCC4)C5)nn3)nc2)o1` [Compound 4542, 2-(6-((4-(2-cyclobutylisoindolin-5-yl)-1H-1,2,3-triazol-1-yl)methyl)pyridin-3-yl)-5-(difluoromethyl)-1,3,4-oxadiazole]: the IC50 on human recombinant HDAC1 (setting [1]) is > 50 µM; at human recombinant HDAC6 (setting [2]), 0.0374 µM. Also, at human recombinant HDAC6 (HDAC6 over HDAC1), the “HDAC6 selectivity (fold)” value amounted to 1336 fold.

Regarding `Fc1cc(-c2nnc(C(F)F)o2)ccc1Cn1cc(-c2cccc(C3CCN(C4COC4)CC3)c2)nn1` [Compound 4293, 2-(difluoromethyl)-5-(3-fluoro-4-((4-(3-(1-(oxetan-3-yl)piperidin-4-yl)phenyl)-1H-1,2,3-triazol-1-yl)methyl)phenyl)-1,3,4-oxadiazole], the values for the IC50 on human recombinant HDAC1 (setting [3]) and on human recombinant HDAC6 (setting [4]) were > 50 µM and 0.0809 µM, respectively. Also, the “HDAC6 selectivity (fold)” value at human recombinant HDAC6 (HDAC1 IC50 / HDAC6 IC50) was 618 fold.

For the compound `CC(=O)N1CCC(Cc2cn(Cc3ccc(-c4nnc(C(F)F)o4)cn3)nn2)CC1` [Compound 4015, 1-(4-((1-((5-(5-(difluoromethyl)-1,3,4-oxadiazol-2-yl)pyridin-2-yl)methyl)-1H-1,2,3-triazol-4-yl)methyl)piperidin-1-yl)ethan-1-one], the IC50 was > 50 µM at human recombinant HDAC1 (setting [3]) and 0.471 µM on human recombinant HDAC6 (setting [4]). On human recombinant HDAC6 (HDAC1 IC50 / HDAC6 IC50), the “HDAC6 selectivity (fold)” value was 106 fold.

`CC(C)N1CC(c2cccc(-c3cn(Cc4ccc(-c5nnc(C(F)F)o5)cn4)nn3)c2)C1` [Compound 4503, 2-(difluoromethyl)-5-(6-((4-(3-(1-isopropylazetidin-3-yl)phenyl)-1H-1,2,3-triazol-1-yl)methyl)pyridin-3-yl)-1,3,4-oxadiazole]: the IC50 on human recombinant HDAC1 (setting [1]) was > 50 µM; at human recombinant HDAC6 (setting [2]) it was 0.0107 µM. Further, on human recombinant HDAC6 (HDAC6 over HDAC1), the “HDAC6 selectivity (fold)” value is listed as 4672 fold.

Turning to `CN1CCc2cc(-c3cn(Cc4ccc(-c5nnc(C(F)F)o5)cc4F)nn3)ccc2C1` [Compound 4358, 2-(difluoromethyl)-5-(3-fluoro-4-((4-(2-methyl-1,2,3,4-tetrahydroisoquinolin-6-yl)-1H-1,2,3-triazol-1-yl)methyl)phenyl)-1,3,4-oxadiazole], the IC50 on human recombinant HDAC1 (setting [3]) was > 50 µM; at human recombinant HDAC6 (setting [4]), 0.033 µM. The “HDAC6 selectivity (fold)” value on human recombinant HDAC6 (HDAC1 IC50 / HDAC6 IC50) is reported as 1515 fold.
